According to patent EP4775580A1, “COMPOUND, PHARMACEUTICAL COMPOSITION COMPRISING SAME, AND USE THEREOF” (Euregen Biopharma Co., Ltd., priority 2023, dated 2025):
Changes are numbered by the printed parent chain.

Legend:
[1] = molecular target: T1, wild-type Menin protein (Menin-WT) (Homo sapiens, UniProt O00255); assay: Fluorescence polarization assay of Menin binding to MLL peptide, wild type; details: FP, 8 nM Menin, 4 nM MLL peptide
T1 sequence (O00255 1-615 isoform O00255-1): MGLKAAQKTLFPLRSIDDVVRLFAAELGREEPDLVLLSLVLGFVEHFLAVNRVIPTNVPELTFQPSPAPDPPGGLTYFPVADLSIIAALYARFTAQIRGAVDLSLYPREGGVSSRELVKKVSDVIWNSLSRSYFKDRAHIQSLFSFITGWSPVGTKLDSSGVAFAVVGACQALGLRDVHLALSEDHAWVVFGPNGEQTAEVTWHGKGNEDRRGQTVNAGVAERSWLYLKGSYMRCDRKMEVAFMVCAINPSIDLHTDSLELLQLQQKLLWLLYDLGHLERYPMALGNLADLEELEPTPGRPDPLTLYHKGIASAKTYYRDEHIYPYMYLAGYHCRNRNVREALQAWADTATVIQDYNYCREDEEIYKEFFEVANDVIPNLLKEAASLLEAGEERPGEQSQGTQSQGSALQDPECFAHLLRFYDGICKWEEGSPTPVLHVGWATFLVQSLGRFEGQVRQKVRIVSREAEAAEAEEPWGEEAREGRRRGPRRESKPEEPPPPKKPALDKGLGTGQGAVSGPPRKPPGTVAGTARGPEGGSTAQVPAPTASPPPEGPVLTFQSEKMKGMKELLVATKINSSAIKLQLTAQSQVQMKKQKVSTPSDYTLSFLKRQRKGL
Text: (§1) • 1. Objective: To evaluate the inhibitory activity of compounds against wild-type Menin protein (Menin-WT) and its mutant variants (Menin-M327V, Menin-M327I, Menin-T349M, Menin-S160T, Menin-S160C, Menin-G331R, and Menin-G331D). • 2. Experimental Principle: The experiment employed fluorescence polarization (FP) to detect the binding of wild-type Menin protein and its mutant variants to MLL peptide. In the absence of inhibitors, binding of wild-type Menin protein and its mutant variants to MLL peptide generates a high FP signal; upon addition of inhibitors, the binding between Menin proteins and MLL peptide is disrupted, resulting in a low FP signal. • 3. Experimental Materials: Final concentration of wild-type Menin protein and its mutant variants: 8 nM; final concentration of MLL peptide: 4 nM. Assay buffer: 50 mM Tris-HCl (pH 8.0), 120 mM NaCl, 0.005% CA-630, 2 mM DTT. • 4. […] The plate was centrifuged at 1000 rpm for 60 seconds. Subsequently, 10 µL of MLL peptide was added to each assay well. The plate was centrifuged at 1000 rpm for 60 seconds and sealed with a sealing membrane. After incubation at 23°C for 60 minutes, the plate was read using a PerkinElmer Envision reader. Data Analysis: [formula]
(§2) Curve fitting: XLFIT software was used for curve fitting, employing a four-parameter logistic model with percent inhibition versus log(compound concentration) as variables.

Menin-G331R = molecular target: T2, Menin-G331R (Homo sapiens, UniProt O00255, G326R); assay: Fluorescence polarization assay of Menin binding to MLL peptide, G331R mutant; details: FP, 8 nM Menin, 4 nM MLL peptide
T2 sequence (O00255 1-615 isoform O00255-1 G331R): T1 sequence (O00255 1-615 isoform O00255-1) with G331R
Text: as §1, §2

MV-4-11 cells = assay: Antiproliferative activity, CellTiter-Glo, 7 days (Test Example 2), MV-4-11; type: cell-based; details: Homo sapiens, MV4-11, 168 h, 7 days incubation
Text: [0134] 1. Experimental Principle: MV-4-11, Molm-13, and OCI-AML-3 cells are human hematologic tumor cell lines harboring the Menin-MLL fusion. HL-60 is a wild-type human hematologic tumor cell line without Menin-MLL fusion. […] 2. Experimental Materials: MV-4-11, Molm-13, OCI-AML-3, and HL-60 cells were all purchased from Cobioer; CellTiter-Glo® was purchased from Promega (Cat. #G7571); RPMI-1640 was purchased from Viva Cell (Cat. #C3010-0500); IMDM was purchased from Viva Cell (Cat. #C3040-0500); fetal bovine serum (FBS) was purchased from Biosera (Cat. #FB-1058/500); penicillin-streptomycin was purchased from BasalMedia (Cat. #S110JV); 0.25% Trypsin-EDTA was purchased from BasalMedia (Cat. #S310KJ); dimethyl sulfoxide (DMSO) was purchased from Sinopharm (Cat. #30072418); 96-well plates were purchased from Corning (Cat. #3610); incubator was obtained from PHCbi (Model: MCO-18AC); inverted microscope was obtained from Mingmei (Cat. #MI52-0); automated cell counter was obtained from BodBoge (Model: JSY-SC-031N); microplate reader was obtained from PerkinElmer (Model: Envision); data processing software: GraphPad Prism 8.0. 3. Experimental Methods: Four cell lines in logarithmic growth phase were resuspended in their respective growth media (MV-4-11: IMDM + 20% FBS; Molm-13: RPMI-1640 + 20% FBS; OCI-AML-3: RPMI-1640 + 20% FBS; HL-60: RPMI-1640 + 10% FBS) and diluted to target densities (12,500, 6,250, 12,500, and 12,500/mL, respectively). The cell suspensions were seeded into 96-well plates at 80 µL per well and incubated overnight at 37°C in a 5% CO2 incubator. Culture medium served as the background control. Test compounds were dissolved in DMSO to prepare 10 mmol/L stock solutions. The stock solutions were first diluted to 2 mmol/L with DMSO, followed by 4-fold serial dilutions to generate 10 concentrations. From each concentration, 2 µL was diluted with 78 µL growth medium. […] After incubation at room temperature for 10 minutes, luminescence values were read using the EnVision microplate reader, and IC50 values were calculated using GraphPad Prism 8.0 software. […]

Row | Compound | IC50 [1] | IC50 (Menin-G331R) | IC50 (MV-4-11 cells)
1 | CCN(C(=O)c1cc(F)ccc1Oc1cncnc1N1CC2(CCN(C[C@H]3CC[C@H](NS(=O)(=O)CC)CC3)CC2)C1)C(C)C [SNDX-5613, revumenib] | 17.6 nM | 101 nM | 14.4 nM
2 | CCN(C(=O)c1cc(F)ccc1N1CCN([C@@H]2CCN([C@H](CCCN(C)CCOC)C(C)C)C2)c2ncncc21)C(C)C [Example 3] | 13 nM | 36.7 nM | 10.1 nM
